From patent US8476298B2 (Exelixis, Inc., priority 2003, dated 2013)

Columns and labels:
[1] = molecular target: c-Kit kinase (Homo sapiens, UniProt P10721); assay: c-Kit AlphaScreen kinase assay; format: biochemical; conditions: Table 4, inhibition as IC50 class;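 note: c-Kit kinase phosphorylating biotinylated poly(Glu,Tyr), ATP near its KM, 1 h reaction at ambient temperature, AlphaScreen chemiluminescence with streptavidin donor and anti-phosphotyrosine acceptor beads, 10-point inhibitor titration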
[2] = molecular target: T1, Flt-4 (baculovirus expressed human Flt-4 kinase domain D725-R1298) (Homo sapiens, UniProt P35916); assay: flt-4 Alphascreen Tyrosine Kinase assay; format: biochemical; conditions: Table 4, inhibition as IC50 class; read-out: flt4 IC50;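 note: AlphaScreen chemiluminescence read-out of biotinylated poly(Glu,Tyr) 4:1 phosphorylation via streptavidin donor and PY100 anti-phosphotyrosine acceptor beads, ATP near KM, 1 hr kinase reaction, 10-point dose-response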
T1 construct: human Flt-4 kinase domain D725-R1298; host or cells: baculovirus expression

[3] = molecular target: T2, KDR (baculovirus expressed human KDR kinase domain D807-V1356) (Homo sapiens, UniProt P35968); assay: biochemical; conditions: Table 4, inhibition as IC50 class;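 note: Luciferase-coupled chemiluminescent kinase assay, activity read as percent ATP left after 4 h reaction at ambient temperature, ATP near KM, 10-point dose-response in 384-well plates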
T2 construct: human KDR kinase domain D807-V1356; host or cells: baculovirus expression

[4] = molecular target: T3, Flt-3 (baculovirus expressed human Flt-3 kinase domain R571-S993) (Homo sapiens, UniProt P36888); assay: biochemical; conditions: Table 4, inhibition as IC50 class; read-out: flt3 IC50;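 note: Luciferase-coupled chemiluminescent kinase assay, activity read as percent ATP left after a 3 h reaction at room temperature, ATP near KM, 10-point dose-response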
T3 construct: human Flt-3 kinase domain R571-S993; host or cells: baculovirus expression
T3 sequence (P36888 571-993): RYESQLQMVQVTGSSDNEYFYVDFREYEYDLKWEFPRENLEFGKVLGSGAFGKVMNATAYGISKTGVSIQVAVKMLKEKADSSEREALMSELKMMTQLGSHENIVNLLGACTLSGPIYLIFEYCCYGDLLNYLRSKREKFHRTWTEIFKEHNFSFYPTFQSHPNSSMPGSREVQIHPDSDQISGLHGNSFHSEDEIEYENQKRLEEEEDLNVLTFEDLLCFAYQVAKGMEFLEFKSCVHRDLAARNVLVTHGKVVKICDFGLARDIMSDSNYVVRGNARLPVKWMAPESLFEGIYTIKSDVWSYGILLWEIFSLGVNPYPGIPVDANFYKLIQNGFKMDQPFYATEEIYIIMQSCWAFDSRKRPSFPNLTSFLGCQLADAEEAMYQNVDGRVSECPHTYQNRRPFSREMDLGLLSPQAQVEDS

[5] = molecular target: T4, c-Met (baculovirus expressed human c-Met kinase domain P948-S1343) (Homo sapiens, UniProt P08581); assay: c-Met Luciferase-Coupled Chemiluminescent Kinase assay (LCCA); format: biochemical; conditions: Table 4, inhibition as IC50 class;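 note: kinase activity read as percent ATP left after reaction, by luciferase-luciferin chemiluminescence, with 1 µM ATP and 1 µM poly-EY substrate, 2 h at ambient temperature, 10-point dose-response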
T4 construct: human c-Met kinase domain P948-S1343; host or cells: baculovirus expression
T4 sequence (P08581 1011-1343 limits assumed): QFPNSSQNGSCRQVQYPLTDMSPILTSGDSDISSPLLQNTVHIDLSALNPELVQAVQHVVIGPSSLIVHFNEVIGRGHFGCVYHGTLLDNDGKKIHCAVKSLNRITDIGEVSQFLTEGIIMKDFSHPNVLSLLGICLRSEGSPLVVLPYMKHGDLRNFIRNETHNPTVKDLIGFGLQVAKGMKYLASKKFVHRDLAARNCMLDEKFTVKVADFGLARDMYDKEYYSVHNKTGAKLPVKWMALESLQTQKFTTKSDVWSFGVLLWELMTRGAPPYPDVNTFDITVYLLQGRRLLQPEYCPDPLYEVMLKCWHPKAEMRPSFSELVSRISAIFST

Chain of c-Kit kinase (P10721 26-976): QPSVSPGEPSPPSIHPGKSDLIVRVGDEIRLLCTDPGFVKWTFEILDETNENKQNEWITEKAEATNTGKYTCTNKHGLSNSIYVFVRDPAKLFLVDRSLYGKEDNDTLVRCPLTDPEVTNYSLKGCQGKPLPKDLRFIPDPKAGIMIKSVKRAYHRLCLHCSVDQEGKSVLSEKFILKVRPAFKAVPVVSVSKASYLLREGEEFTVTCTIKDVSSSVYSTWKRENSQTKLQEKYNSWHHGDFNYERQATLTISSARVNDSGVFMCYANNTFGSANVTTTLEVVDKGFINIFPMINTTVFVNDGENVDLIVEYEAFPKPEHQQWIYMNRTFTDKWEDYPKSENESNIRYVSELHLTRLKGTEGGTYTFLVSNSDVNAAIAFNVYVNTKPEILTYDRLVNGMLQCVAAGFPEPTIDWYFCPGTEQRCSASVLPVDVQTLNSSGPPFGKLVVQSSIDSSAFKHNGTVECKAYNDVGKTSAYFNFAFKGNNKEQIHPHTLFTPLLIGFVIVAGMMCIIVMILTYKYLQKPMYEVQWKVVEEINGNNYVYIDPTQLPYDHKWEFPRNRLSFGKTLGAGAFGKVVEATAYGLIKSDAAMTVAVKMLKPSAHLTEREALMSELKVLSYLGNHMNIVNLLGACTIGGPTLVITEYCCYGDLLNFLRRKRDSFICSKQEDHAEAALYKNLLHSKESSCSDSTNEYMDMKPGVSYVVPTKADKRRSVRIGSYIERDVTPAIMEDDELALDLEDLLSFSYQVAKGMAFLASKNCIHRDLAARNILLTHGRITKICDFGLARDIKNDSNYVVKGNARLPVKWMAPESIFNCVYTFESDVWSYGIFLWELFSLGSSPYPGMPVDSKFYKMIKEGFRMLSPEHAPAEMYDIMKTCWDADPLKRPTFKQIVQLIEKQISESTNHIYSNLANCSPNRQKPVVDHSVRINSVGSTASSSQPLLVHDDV
T2 sequence (P35968 807-1356): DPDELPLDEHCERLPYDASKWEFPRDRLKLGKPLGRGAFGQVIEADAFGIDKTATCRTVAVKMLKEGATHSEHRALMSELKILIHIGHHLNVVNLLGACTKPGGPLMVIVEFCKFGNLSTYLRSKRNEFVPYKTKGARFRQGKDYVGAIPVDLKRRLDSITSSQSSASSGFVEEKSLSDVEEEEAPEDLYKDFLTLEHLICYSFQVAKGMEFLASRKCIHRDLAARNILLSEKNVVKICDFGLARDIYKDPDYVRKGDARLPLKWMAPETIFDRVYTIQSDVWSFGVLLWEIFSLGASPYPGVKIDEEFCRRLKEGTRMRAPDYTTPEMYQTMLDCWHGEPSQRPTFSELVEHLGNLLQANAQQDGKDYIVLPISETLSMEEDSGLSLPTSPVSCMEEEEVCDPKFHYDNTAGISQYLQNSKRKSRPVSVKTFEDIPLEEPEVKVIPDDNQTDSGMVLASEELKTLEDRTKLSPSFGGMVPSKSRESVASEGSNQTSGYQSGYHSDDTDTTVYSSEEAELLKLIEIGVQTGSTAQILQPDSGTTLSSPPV
T1 sequence (P35916 725-1298 isoform P35916-1): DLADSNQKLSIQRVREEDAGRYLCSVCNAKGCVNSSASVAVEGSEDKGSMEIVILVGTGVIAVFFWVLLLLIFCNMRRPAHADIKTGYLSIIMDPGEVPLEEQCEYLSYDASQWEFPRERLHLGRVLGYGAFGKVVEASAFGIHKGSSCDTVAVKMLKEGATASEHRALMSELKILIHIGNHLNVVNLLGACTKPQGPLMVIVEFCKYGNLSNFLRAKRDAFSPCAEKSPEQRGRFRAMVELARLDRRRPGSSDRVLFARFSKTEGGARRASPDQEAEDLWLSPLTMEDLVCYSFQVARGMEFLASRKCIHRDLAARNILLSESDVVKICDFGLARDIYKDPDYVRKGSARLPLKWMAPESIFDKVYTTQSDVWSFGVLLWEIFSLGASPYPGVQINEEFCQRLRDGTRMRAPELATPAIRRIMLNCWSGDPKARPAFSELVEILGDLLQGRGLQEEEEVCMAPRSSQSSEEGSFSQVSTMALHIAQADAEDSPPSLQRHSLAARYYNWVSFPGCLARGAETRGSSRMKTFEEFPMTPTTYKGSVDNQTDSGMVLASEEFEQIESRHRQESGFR

| SMILES | IC50 [1] [µM] | IC50 [2] [µM] | IC50 [3] [µM] | IC50 [4] [µM] | IC50 [5] [µM] |
| --- | --- | --- | --- | --- | --- |
| COc1cc2c(Oc3ccc(NC(=O)C(=O)NCC(C)c4ccccc4)cc3F)ccnc2cc1OCC1CCNCC1 (centres unmarked) [Example 229, N-[3-fluoro-4-({6-(methyloxy)-7-[(piperidin-4-ylmethyl)oxy]quinolin-4-yl}oxy)phenyl]-N′-(2-phenylpropyl)ethanediamide] | < 0.05 | < 0.05 | < 0.05 | < 0.05 | < 0.05 |
| CCN1CCC(COc2cc3nccc(Oc4ccc(NC(=O)C(=O)N5CCOC(c6ccccc6)C5)cc4F)c3cc2OC)CC1 (centres unmarked) [Example 231, N-(4-{[7-{[(1-ethylpiperidin-4-yl)methyl]oxy}-6-(methyloxy)quinolin-4-yl]oxy}-3-fluorophenyl)-2-oxo-2-(2-phenylmorpholin-4-yl)acetamide] | 0.05 to 0.5 | 0.05 to 0.5 | 0.05 to 0.5 | 0.05 to 0.5 | < 0.05 |
| COc1cc2c(Oc3ccc(NC(=O)C(=O)NCc4cc(F)cc(C(F)(F)F)c4)cc3F)ccnc2cc1OCC1CCNCC1 [Example 232, N-[3-fluoro-4-({6-(methyloxy)-7-[(piperidin-4-ylmethyl)oxy]quinolin-4-yl}oxy)phenyl]-N′-{[3-fluoro-5-(trifluoromethyl)phenyl]methyl}ethanediamide] | 0.05 to 0.5 | 0.05 to 0.5 | < 0.05 | < 0.05 | < 0.05 |
| COc1cc2c(Oc3ccc(NC(=O)C(=O)NCc4cc(F)cc(F)c4)cc3F)ccnc2cc1OCC1CCNCC1 [Example 233, N-[(3,5-difluorophenyl)methyl]-N′-[3-fluoro-4-({6-(methyloxy)-7-[(piperidin-4-ylmethyl)oxy]quinolin-4-yl}oxy)phenyl]ethanediamide] | < 0.05 | < 0.05 | < 0.05 | 0.05 to 0.5 | < 0.05 |
| COc1cc2c(Oc3ccc(NC(=O)C(=O)NCc4cc(C(F)(F)F)ccc4Cl)cc3F)ccnc2cc1OCC1CCNCC1 [Example 234, N-{[2-chloro-5-(trifluoromethyl)phenyl]methyl}-N′-[3-fluoro-4-({6-(methyloxy)-7-[(piperidin-4-ylmethyl)oxy]quinolin-4-yl}oxy)phenyl]ethanediamide] | 0.05 to 0.5 | 0.05 to 0.5 | < 0.05 | < 0.05 | < 0.05 |
| COc1cc2c(Oc3ccc(NC(=O)C(=O)NCc4cccc(C(F)(F)F)c4)cc3F)ccnc2cc1OCC1CCNCC1 [Example 239, N-[3-fluoro-4-({6-(methyloxy)-7-[(piperidin-4-ylmethyl)oxy]quinolin-4-yl}oxy)phenyl]-N′-{[3-(trifluoromethyl)phenyl]methyl}ethanediamide] | < 0.05 | 0.05 to 0.5 | < 0.05 | < 0.05 | < 0.05 |
| COc1cc2c(Oc3ccc(NC(=O)C(=O)NCc4cccc(OC(F)(F)F)c4)cc3F)ccnc2cc1OCC1CCNCC1 [Example 240, N-[3-fluoro-4-({6-(methyloxy)-7-[(piperidin-4-ylmethyl)oxy]quinolin-4-yl}oxy)phenyl]-N′-({3-[(trifluoromethyl)oxy]phenyl}methyl)ethanediamide] | < 0.05 | < 0.05 | < 0.05 | < 0.05 | < 0.05 |
| COc1cc2c(Oc3ccc(NC(=O)C(=O)NCc4ccccc4OC(F)(F)F)cc3F)ccnc2cc1OCC1CCNCC1 [Example 244, N-[3-fluoro-4-({6-(methyloxy)-7-[(piperidin-4-ylmethyl)oxy]quinolin-4-yl}oxy)phenyl]-N′-({2-[(trifluoromethyl)oxy]phenyl}methyl)ethanediamide] | < 0.05 | < 0.05 | < 0.05 | < 0.05 | < 0.05 |
| COc1cc2c(Oc3ccc(NC(=O)C(=O)NCCc4ccccc4)cc3F)ccnc2cc1OCC1CN(C)C1 [Example 250, N-(3-fluoro-4-{[7-{[(1-methylazetidin-3-yl)methyl]oxy}-6-(methyloxy)quinolin-4-yl]oxy}phenyl)-N′-(2-phenylethyl)ethanediamide] | < 0.05 | < 0.05 | < 0.05 | < 0.05 | < 0.05 |
| CC[C@@H](NC(=O)C(=O)Nc1ccc(Oc2ccnc3cc(OCC4CCNCC4)c(OC)cc23)c(F)c1)c1ccccc1 [Example 254, N-[3-fluoro-4-({6-(methyloxy)-7-[(piperidin-4-ylmethyl)oxy]quinolin-4-yl}oxy)phenyl]-N′-[(1R)-1-phenylpropyl]ethanediamide] | 0.05 to 0.5 | 0.05 to 0.5 | 0.05 to 0.5 | 0.05 to 0.5 | < 0.05 |

The remaining lines, values ahead:

| IC50 [1] [µM] | IC50 [2] [µM] | IC50 [3] [µM] | IC50 [4] [µM] | IC50 [5] [µM] | SMILES |
| --- | --- | --- | --- | --- | --- |
| 0.05 to 0.5 | 0.05 to 0.5 | 0.05 to 0.5 | 0.05 to 0.5 | < 0.05 | COc1ccc(CCNC(=O)C(=O)Nc2ccc(Oc3ccnc4cc(OCC5CCNCC5)c(OC)cc34)c(F)c2)cc1 [Example 228, N-[3-fluoro-4-({6-(methyloxy)-7-[(piperidin-4-ylmethyl)oxy]quinolin-4-yl}oxy)phenyl]-N′-{2-[4-(methyloxy)phenyl]ethyl}ethanediamide] |
| 0.05 to 0.5 | 0.05 to 0.5 | < 0.05 | 0.05 to 0.5 | < 0.05 | COc1cc2c(Oc3ccc(NC(=O)C(=O)NCCc4ccc(Br)cc4)cc3F)ccnc2cc1OCC1CCNCC1 [Example 230, N-[2-(4-bromophenyl)ethyl]-N′-[3-fluoro-4-({6-(methyloxy)-7-[(piperidin-4-ylmethyl)oxy]quinolin-4-yl}oxy)phenyl]ethanediamide] |
| < 0.05 | < 0.05 | < 0.05 | < 0.05 | < 0.05 | COc1ccccc1CNC(=O)C(=O)Nc1ccc(Oc2ccnc3cc(OCC4CCNCC4)c(OC)cc23)c(F)c1 [Example 241, N-[3-fluoro-4-({6-(methyloxy)-7-[(piperidin-4-ylmethyl)oxy]quinolin-4-yl}oxy)phenyl]-N′-{[2-(methyloxy)phenyl]methyl}ethanediamide] |
| < 0.05 | 0.05 to 0.5 | < 0.05 | 0.05 to 0.5 | < 0.05 | COc1cc2c(Oc3ccc(NC(=O)C(=O)NCc4cccc(Cl)c4)cc3F)ccnc2cc1OCC1CCNCC1 [Example 243, N-[(3-chlorophenyl)methyl]-N′-[3-fluoro-4-({6-(methyloxy)-7-[(piperidin-4-ylmethyl)oxy]quinolin-4-yl}oxy)phenyl]ethanediamide] |
| < 0.05 | < 0.05 | < 0.05 | < 0.05 | < 0.05 | COc1cc2c(Oc3ccc(NC(=O)C(=O)NCc4ccccc4Cl)cc3F)ccnc2cc1OCC1CCNCC1 [Example 245, N-[(2-chlorophenyl)methyl]-N′-[3-fluoro-4-({6-(methyloxy)-7-[(piperidin-4-ylmethyl)oxy]quinolin-4-yl}oxy)phenyl]ethanediamide] |
| 0.05 to 0.5 | 0.05 to 0.5 | 0.05 to 0.5 | 0.05 to 0.5 | < 0.05 | COc1cc2c(Oc3ccc(NC(=O)C(=O)NCc4ccc(OC(F)(F)F)cc4)cc3F)ccnc2cc1OCC1CCNCC1 [Example 246, N-[3-fluoro-4-({6-(methyloxy)-7-[(piperidin-4-ylmethyl)oxy]quinolin-4-yl}oxy)phenyl]-N′-({4-[(trifluoromethyl)oxy]phenyl}methyl)ethanediamide] |
| < 0.05 | < 0.05 | < 0.05 | 0.05 to 0.5 | < 0.05 | COc1cc2c(Oc3ccc(NC(=O)C(=O)NCc4ccc(F)c(F)c4)cc3F)ccnc2cc1OCC1CCNCC1 [Example 256, N-[(3,4-difluorophenyl)methyl]-N′-[3-fluoro-4-({6-(methyloxy)-7-[(piperidin-4-ylmethyl)oxy]quinolin-4-yl}oxy)phenyl]ethanediamide] |
| < 0.05 | < 0.05 | < 0.05 | 0.05 to 0.5 | < 0.05 | COc1cc2c(Oc3ccc(NC(=O)C(=O)NCc4c(F)cccc4F)cc3F)ccnc2cc1OCC1CCNCC1 [Example 257, N-[(2,6-difluorophenyl)methyl]-N′-[3-fluoro-4-({6-(methyloxy)-7-[(piperidin-4-ylmethyl)oxy]quinolin-4-yl}oxy)phenyl]ethanediamide] |
| < 0.05 | < 0.05 | < 0.05 | < 0.05 | < 0.05 | COc1cc2c(Oc3ccc(NC(=O)C(=O)NCCc4ccc(F)cc4)cc3F)ccnc2cc1OCC1CCN(C)CC1 [Example 258, N-{3-fluoro-4-[(6-(methyloxy)-7-{[(1-methylpiperidin-4-yl)methyl]oxy}quinolin-4-yl)oxy]phenyl}-N′-[2-(4-fluorophenyl)ethyl]ethanediamide] |
